Patent publication US7217735B1, “Methods and compositions for enhancing delivery of therapeutic agents to tissues” (priority 1999, dated 2007)
Where two headings read alike, the source gives them in different places. Marks after values point to notes of the source that are not given here.

Legend:
MAT-LyLu prostate tumor = assay: Effect of pretreatment on paclitaxel accumulation in tumors, in vivo infusion; parameters: species or system Copenhagen rat
Source text: (§1) Experiments were initiated when the tumor was between 0.3 to 0.5 g in size.
(§2) The jugular vein and carotid artery of tumor-bearing rats were catheterized, under light ether anesthesia, with polyethylene tubing (PE-50, Becton Dickinson Co., Sparks, Md.) for drug administration and for blood sampling, respectively. Each catheter was exteriorized to the dorsal side of the neck and attached to a second polyethylene tubing (PE-50), respectively. The catheters and tubings were covered with a metal coil tubing. […] Blood samples (0.12 or 0.22 ml) were obtained at predetermined times. Plasma fraction was obtained by centrifugation at 2,000 g for 3 min, and stored at −70° C. for HPLC analysis. At the end of the experiment, tumors were harvested. One quarter of a tumor was fixed in 10% neutralized formalin solution and processed for tissue morphology evaluation. Tumor cell density and the fraction of apoptotic cells were determined by counting the number of tumor cells and apoptotic cells in nonnecrotic regions at 400× magnification (5 microscopic fields/tumor). The remainder of the tumor was stored at […] until HPLC analysis for drug concentration.
(§3) Preweighed tumors were homogenized, mixed with the internal standard, 100:1 cephalomanine (10:g/ml in methanol). The HPLC stationary phase consisted of a cleaning column (NovaPak C8, 75×3.9 mm ID, 4:m particle size, Waters Associates, Milford, Mass.) and an analytical column (Bakerbond Octadecyl, 250×4.6 mm ID, 5:m particle size, J. T. Baker, Phillipsburg, N.J.). Samples were injected onto the clean-up column and eluted with the clean-up mobile phase (37.5% acetonitrile in Water) at 1 ml/min.

[1] = as above; parameters: species or system Copenhagen rat; conditions: male, Copenhagen, rat; for Kp: tumor and plasma, intravenous, read-out: Tumor-to-plasma conc. ratio at end of Tx
Source text: as §1, §2, §3

[2] = tested on: Pgp-positive patient tumors; assay: Paclitaxel accumulation by Pgp status; type: in vitro ADME, human; conditions: 12,000 nM
Experimental: The expression of Pgp was measured by immunohistochemical methods, using procedures described previously (Toth K et al. (1994) Am J Pathol 144:227–236). Briefly, tissue sections were de-waxed and rehydrated sequentially in xylene, ethanol and water. Tissue sections were boiled in a 0.1 M citrate buffer, pH 6.0, in a microwave oven, then cooled and washed in phosphate-buffered saline (PBS). The tissue sections were incubated with Dako blocking solution for 10 min and subsequently with the following antibody solutions for 2 hr: a mouse anti-human Pgp antibody (JSB-1, 1:200 dilution) and a rabbit antihuman Pgp polyclonal antibody (ab-1, 1:100 dilution). […] The incubation was carried out in a humidified chamber at room temperature. The antibodies were diluted in PBS containing 5 mg/ml bovine serum albumin. For negative controls, we used mouse IgG as the primary antibody. […] After washing with PBS, the tissue sections were covered with the linker solution, and then with peroxidase-conjugated streptavidin solution. After washing twice with PBS, tissue sections were incubated for 5 to 7 minutes with diaminobenzidine and counterstained with hematoxylin.
The statistical significance of the differences between groups was analyzed by the two-tailed unpaired Student's t-test.

FaDu xenograft tumors = assay: Paclitaxel uptake in tumor histocultures
Source text: FaDu cells were obtained from American Type Culture Collection (Rockville, Mass.). MCF7 cells were obtained from Dr. Kenneth Cowan at the National Cancer Institute. Cells were harvested from subconfluent cultures using trypsin and resuspended in fresh medium before plating. Cells with greater than 90% viability, as determined by trypan blue exclusion, were used for tumor implantation. Cells were centrifuged and resuspended in Matrigel (1:1 v/v). […] The tumor establishment was achieved by subcutaneously injecting 10^6 cells (0.1–0.2 ml) with a 18 gauge needle at left and right sides of the upper back. The tumor was removed when it reached a size of 0.5 to 1 g and used for experiments.
(§4) The specimens were washed with culture medium for three times and dissected into about 1 mm^3 fragments under sterile conditions. The culture medium consisted of a 1:1 mixture of MEM/DMEM for patient tumors, MEM for FaDu xenografts, and RPMI1640 for PC3 xenografts, supplemented with 9% heat-inactivated FBS, 2 mM glutamine, 0.1 mM non-essential amino acids (only for MEM/DMEM), 90:g/ml gentamicin and 90:g/ml cefotaxime sodium. Five histoculture fragments were placed on a 1 cm^2 piece of presoaked collagen gel and incubated with 4 ml culture medium in 6-well plates. After 2 to 4 days, tumor histocultures were used to study the kinetics of drug penetration.
(§5) At predetermined times, 100 μl of medium was taken from each well and the histocultures were removed from the plates. The histocultures were blot-dried on a filter paper and their weights were measured. One hundred 1 of medium or tumor samples were mixed with 0.5 ml of Solvable tissue/gel solubilizer, incubated at 50° C. in an oven overnight, and analyzed for total radioactivity using liquid scintillation counting. […] Drug concentration in tissue was calculated as (drug amount) divided by (tissue weight) and was expressed in molar terms.
For the FaDu xenograft tumor, specimens from individual animals were sufficiently large that each tumor was used for studying uptake and efflux at all four drug concentrations.

patient ovarian tumors = assay: Paclitaxel efflux from tumor histocultures; type: in vitro ADME, human
FaDu tumor histocultures = conditions: for time at which even distribution in tumor was attained: with pretreatment
Source text: The histocultures were transferred to a collagen gel presoaked with drug-containing medium for at least 8 hr. The latter was to ascertain that the drug concentration in the medium inside the collagen gel was at equilibrium with the surrounding medium, in order to eliminate the delay in drug transport from medium through the collage gel. Drug treatment was terminated by transferring histocultures to a collagen gel presoaked with drug-free medium. Histocultures were transferred using a pair of hooked forceps and care was exercised to avoid squeezing or pinching.
The total drug concentration in tumor histocultures was measured as described in Example 1. […] Thirty to 35 tumor histocultures were used for each time point.
Two studies were performed.
One schedule used 50% of the total C×T to induce apoptosis, whereas the other schedule used continuous treatment. […] The fraction of apoptotic cells and cell density were determined by counting the number of total and apoptotic tumor cells in 400× microscopic fields (3 fields per tumor).

[3] = tested on: patient head and neck tumors; assay: Paclitaxel uptake in tumor histocultures
Experimental: as §4
This study was performed using head and neck tumors from human patients and the human pharynx FaDu xenograft tumors maintained in athymic mice.
as §5
The study design of experiments using patient tumors was dictated by the size of the specimens. On some occasions, specimens from an individual patient were only sufficient to study drug uptake and efflux at one or more but not all drug concentrations. A total of 7 head and neck tumors and 3 ovarian tumors were used. For the FaDu xenograft tumor, specimens from individual animals were sufficiently large that each tumor was used for studying uptake and efflux at all four drug concentrations.
The statistical significance of the differences among patient (head and neck and ovarian, n=6) and FaDu (n=3) tumors, at equal initial medium concentrations, were analyzed by the two-tailed unpaired Student's t-test.

[4] = Group 1: 5 mg/kg/hr x 1 hr, then 0.83 x 6 hr at 24 hr, total 10 mg/kg
[5] = Group 2A: 5 mg/kg/hr x 1 hr at 0 hr, total 5 mg/kg, at 1 hr
[6] = Group 2B: 5 mg/kg/hr x 1 hr at 0 hr, total 5 mg/kg, at 24 hr
[7] = Group 3: 0.83 mg/kg/hr x 6 hr at 0 hr, total 5 mg/kg
[8] = Group 4: 5 mg/kg/hr x 1 hr at 0 hr + 0.83 x 6 hr at 1.2 hr, total 10 mg/kg
[9] = Group 5: 0.83 mg/kg/hr x 12 hr, total 10 mg/kg
[10] = initial Cmedium 120 nM for 24 hr, at 24 hr post-treatment
[11] = initial Cmedium 120 nM for 24 hr, at 72 hr post-treatment
[12] = initial Cmedium 1,200 nM for 24 hr, at 24 hr post-treatment
[13] = initial Cmedium 1,200 nM for 24 hr, at 72 hr post-treatment

SMILES: CC(=O)O[C@H]1C(=O)[C@@]2(C)[C@H]([C@H](OC(=O)c3ccccc3)[C@]3(O)C[C@H](OC(=O)[C@H](O)[C@@H](NC(=O)c4ccccc4)c4ccccc4)C(C)=C1C3(C)C)[C@]1(OC(C)=O)CO[C@@H]1C[C@@H]2O [paclitaxel]
- Apoptotic fraction (MAT-LyLu prostate tumor; [4]): 14.5 ± 2.5^b %
- Cell density (MAT-LyLu prostate tumor; [4]): 83 ± 4.69^b
- Plasma conc. at end of Tx (MAT-LyLu prostate tumor; [4]): 1.42 ± 0.11 :g/ml
- Tumor conc. at specified time (MAT-LyLu prostate tumor; Group 1: 5 mg/kg/hr x 1 hr, then 0.83 x 6 hr at 24 hr, total 10 mg/kg, at 30 hr): 3.94 ± 0.35 :g/g
- higher tumor concentration in Group 1 than sum of Group 2 at 24 hr and Group 3 at 6 hr (MAT-LyLu prostate tumor; Group 1 at 30 hr): 50%
- Plasma conc. at end of Tx (MAT-LyLu prostate tumor; Group 2A: 5 mg/kg/hr x 1 hr at 0 hr, total 5 mg/kg): 6.01 ± 0.64 :g/ml
- Apoptotic fraction (MAT-LyLu prostate tumor; [5]): 1.5 ± 0.9%
- Cell density (MAT-LyLu prostate tumor; [5]): 120 ± 4.35
- Tumor conc. at specified time (MAT-LyLu prostate tumor; [5]): 2.76 ± 0.57 :g/g
- Apoptotic fraction (MAT-LyLu prostate tumor; [6]): 11.2 ± 2.3^c %
- Cell density (MAT-LyLu prostate tumor; [6]): 85 ± 4.52
- Tumor conc. at specified time (MAT-LyLu prostate tumor; [6]): <0.35 at :g/g
- Apoptotic fraction (MAT-LyLu prostate tumor; [7]): 3.5 ± 1.5%
- Cell density (MAT-LyLu prostate tumor; [7]): 112 ± 6.08
- Plasma conc. at end of Tx (MAT-LyLu prostate tumor; [7]): 1.31 ± 0.12 :g/ml
- Tumor conc. at specified time (MAT-LyLu prostate tumor; Group 3: 0.83 mg/kg/hr x 6 hr at 0 hr, total 5 mg/kg, at 6 hr): 2.26 ± 0.13 :g/g
- Apoptotic fraction (MAT-LyLu prostate tumor; [8]): 5.8 ± 2.2%
- Cell density (MAT-LyLu prostate tumor; [8]): 108 ± 5.78
- Plasma conc. at end of Tx (MAT-LyLu prostate tumor; [8]): 2.98 ± 0.60 :g/ml
- Tumor conc. at specified time (MAT-LyLu prostate tumor; Group 4: 5 mg/kg/hr x 1 hr at 0 hr + 0.83 x 6 hr at 1.2 hr, total 10 mg/kg, at 7.2 hr): 3.24 ± 0.31 :g/g
- Apoptotic fraction (MAT-LyLu prostate tumor; [9]): 6.5 ± 1.6%
- Cell density (MAT-LyLu prostate tumor; [9]): 115 ± 5.18
- Plasma conc. at end of Tx (MAT-LyLu prostate tumor; [9]): 1.50 ± 0.06 :g/ml
- Tumor conc. at specified time (MAT-LyLu prostate tumor; Group 5: 0.83 mg/kg/hr x 12 hr, total 10 mg/kg, at 12 hr): 2.95 ± 0.34 :g/g
- higher cell (density) in Group 5 compared to Group 1 (MAT-LyLu prostate tumor; end of treatment): 25%
- higher cell density in Group 4 compared to Group 1 (MAT-LyLu prostate tumor; end of treatment): 30%
- lower apoptosis in Group 4 compared to Group 1 (MAT-LyLu prostate tumor; end of treatment): 60%
- lower apoptosis in Group 5 compared to Group 1 (MAT-LyLu prostate tumor; end of treatment): 35%
- lower drug concentration in Group 4 compared to Group 1 (MAT-LyLu prostate tumor; end of treatment): 18%
- lower drug concentration in Group 5 at 12 hr than Group 1 at 30 hr (MAT-LyLu prostate tumor; rat, in vivo): 25%
- difference between plasma concentrations at end of 6 and 12 hr infusions (MAT-LyLu prostate tumor; rats): 13%
- half-life ([1]; plasma, rats, intravenous infusion, read-out: major half-life (converted)): 66 min
- Kp ([1]; 5 mg/kg, Group 2A: 5 mg/kg/hr x 1 hr at 0 hr, total 5 mg/kg): 0.46 ± 0.09
- Kp ([1]; 5 mg/kg, Group 3: 0.83 mg/kg/hr x 6 hr at 0 hr, total 5 mg/kg): 1.73 ± 0.18
- Kp ([1]; 10 mg/kg, Group 1: 5 mg/kg/hr x 1 hr, then 0.83 x 6 hr at 24 hr, total 10 mg/kg): 2.8 ± 0.28
- Kp ([1]; 10 mg/kg, Group 4: 5 mg/kg/hr x 1 hr at 0 hr + 0.83 x 6 hr at 1.2 hr, total 10 mg/kg): 1.2 ± 0.3
- Kp ([1]; 10 mg/kg, Group 5: 0.83 mg/kg/hr x 12 hr, total 10 mg/kg): 1.98 ± 0.23
- lower accumulation in Pgp-positive vs Pgp-negative patient tumors (average difference) [2]: < 25%
- Mass balance (FaDu xenograft tumors; initial Cmedium 12 nM): 92.5 ± 5.1%
- Steady state Cmedium (FaDu xenograft tumors; initial Cmedium 12 nM): 9.09 ± 0.27 nM
- Mass balance (FaDu xenograft tumors; initial Cmedium 120 nM): 86.5 ± 2.8%
- Steady state Cmedium (FaDu xenograft tumors; initial Cmedium 120 nM): 89.7 ± 13.3 nM
- Mass balance (FaDu xenograft tumors; initial Cmedium 1,200 nM): 89.4 ± 5.7%
- Steady state Cmedium (FaDu xenograft tumors; initial Cmedium 1,200 nM): 887 ± 131 nM
- Mass balance (FaDu xenograft tumors; initial Cmedium 12,000 nM): 90.2 ± 5.4%
- Steady state Cmedium (FaDu xenograft tumors; initial Cmedium 12,000 nM): 8,910 ± 267 nM
- % remaining in tumor (patient ovarian tumors; [10]): 39.8 ± 14.2%
- Cmedium (patient ovarian tumors; [10]): 1.19 ± 0.24 nM
- Ctumor (patient ovarian tumors; [10]): 0.615 ± :M
- % remaining in tumor (patient ovarian tumors; [11]): 35.7 ± 18.5%
- Cmedium (patient ovarian tumors; [11]): 1.60 ± 0.26 nM
- Ctumor (patient ovarian tumors; [11]): 0.520 ± 0.196 :M
- T1/2,efflux (patient ovarian tumors; initial Cmedium 1,200 nM for 24 hr): 5.00 ± 2.93 h
- % remaining in tumor (patient ovarian tumors; [12]): 25.9 ± 8.3%
- Cmedium (patient ovarian tumors; [12]): 12.8 ± 3.41 nM
- Ctumor (patient ovarian tumors; [12]): 5.13 ± :M
- % remaining in tumor (patient ovarian tumors; [13]): 19.8 ± 6.6%
- Cmedium (patient ovarian tumors; [13]): 16.7 ± 2.9 nM
- Ctumor (patient ovarian tumors; [13]): 4.20 ± 1.79 :M
- time at which even distribution in tumor was attained (FaDu tumor histocultures; 10 nM): 72 h
- Paclitaxel in tumor (FaDu tumor histocultures; 50 nM x 24 hr, 24 hr after initiation of treatment): 3.11 ± 0.31 :M
- Paclitaxel in tumor (FaDu tumor histocultures; 50 nM x 24 hr, 36 hr after initiation of treatment): 2.01 ± 0.32 :M
- time at which even distribution in tumor was attained (FaDu tumor histocultures; 50 nM): 24 h
- time of even distribution throughout the tumor (FaDu tumor histocultures; 50 nM, without pretreatment): ≤ 72 h
- Paclitaxel in tumor (FaDu tumor histocultures; 600 nM x 1 hr, 23 hr later 50 nM x 12 hr, 24 hr after initiation of treatment): 2.68 ± 0.31 :M
- Paclitaxel in tumor (FaDu tumor histocultures; 600 nM x 1 hr, 23 hr later 50 nM x 12 hr, 36 hr after initiation of treatment): 4.33 ± 0.29 :M
- paclitaxel penetration (FaDu tumor histocultures; control group, 50 nM continuously for 24 hr, during the next 12 hr): less than 20 cell layers
- higher drug accumulation in pretreatment group vs control group (FaDu tumor histocultures; end of drug treatment (36 hr vs 24 hr), equal CxT 1,200 nM·hr): 40%
- time of even drug distribution throughout histocultures (FaDu tumor histocultures; pretreatment group, 600 nM 1 hr, 23 hr drug-free, 50 nM 12 hr): 36 h
- Mass balance ([3]; initial Cmedium 12 nM): 91.2 ± 3.5%
- Steady state Cmedium ([3]; initial Cmedium 12 nM): 10.9 ± 1.0 nM
- Mass balance ([3]; initial Cmedium 120 nM): 83.8 ± 7.6%
- Steady state Cmedium ([3]; initial Cmedium 120 nM): 83.0 ± 0.7 nM
- Steady state Ctumor ([3]; initial Cmedium 120 nM): 5.77 ± 1.52 :M
- Mass balance ([3]; initial Cmedium 1,200 nM): 87.5 ± 6.5%
- Steady state Cmedium ([3]; initial Cmedium 1,200 nM): 925 ± 25 nM
- Steady state Ctumor ([3]; initial Cmedium 1,200 nM): 22.0 ± 6.2 :M
- Mass balance ([3]; initial Cmedium 12,000 nM): 91.5 ± 3.5%
- Steady state Cmedium ([3]; initial Cmedium 12,000 nM): 9,870 ± 59 nM
- Steady state Ctumor ([3]; initial Cmedium 12,000 nM): 341 ± 125 :M
